Columns and labels:
Assay in all cases: radiometric filter-binding kinase assay
[1] = target: DYRK3 (human) (UniProt O43781); details: compound 100.0 µM; ATP 5 µM
[2] = target: IGF1R (human) (UniProt P08069); details: compound 100.0 µM; ATP 5 µM
[3] = target: MAPK1 (human) (UniProt P28482); details: compound 100.0 µM; ATP 20 µM
[4] = target: MAP2K1 (human) (UniProt Q02750); details: compound 100.0 µM; ATP 5 µM
[5] = target: MKNK1 (human) (UniProt Q9BUB5); details: compound 100.0 µM; ATP 50 µM
[6] = system: ROCK2 (rat); details: compound 100.0 µM; ATP 20 µM; accession and sequence are those of the human protein
[7] = target: DYRK1A (human) (UniProt Q13627); details: compound 100.0 µM; ATP 50 µM
[8] = target: SRC (human) (UniProt P12931); details: compound 100.0 µM; ATP 50 µM
[9] = target: PTK6 (human) (UniProt Q13882); details: compound 100.0 µM; ATP 20 µM
[10] = target: MKNK2 (human) (UniProt Q9HBH9); details: compound 100.0 µM; ATP 50 µM
[11] = target: MAPKAPK2 (human) (UniProt P49137); details: compound 100.0 µM; ATP 20 µM
[12] = target: CSK (human) (UniProt P41240); details: compound 100.0 µM; ATP 20 µM
[13] = target: RPS6KA5 KD1 KD2 (human) (UniProt O75582); details: compound 100.0 µM; ATP 20 µM
Sequence of RPS6KA5 KD1 KD2 (human) (O75582 whole entry, looked up): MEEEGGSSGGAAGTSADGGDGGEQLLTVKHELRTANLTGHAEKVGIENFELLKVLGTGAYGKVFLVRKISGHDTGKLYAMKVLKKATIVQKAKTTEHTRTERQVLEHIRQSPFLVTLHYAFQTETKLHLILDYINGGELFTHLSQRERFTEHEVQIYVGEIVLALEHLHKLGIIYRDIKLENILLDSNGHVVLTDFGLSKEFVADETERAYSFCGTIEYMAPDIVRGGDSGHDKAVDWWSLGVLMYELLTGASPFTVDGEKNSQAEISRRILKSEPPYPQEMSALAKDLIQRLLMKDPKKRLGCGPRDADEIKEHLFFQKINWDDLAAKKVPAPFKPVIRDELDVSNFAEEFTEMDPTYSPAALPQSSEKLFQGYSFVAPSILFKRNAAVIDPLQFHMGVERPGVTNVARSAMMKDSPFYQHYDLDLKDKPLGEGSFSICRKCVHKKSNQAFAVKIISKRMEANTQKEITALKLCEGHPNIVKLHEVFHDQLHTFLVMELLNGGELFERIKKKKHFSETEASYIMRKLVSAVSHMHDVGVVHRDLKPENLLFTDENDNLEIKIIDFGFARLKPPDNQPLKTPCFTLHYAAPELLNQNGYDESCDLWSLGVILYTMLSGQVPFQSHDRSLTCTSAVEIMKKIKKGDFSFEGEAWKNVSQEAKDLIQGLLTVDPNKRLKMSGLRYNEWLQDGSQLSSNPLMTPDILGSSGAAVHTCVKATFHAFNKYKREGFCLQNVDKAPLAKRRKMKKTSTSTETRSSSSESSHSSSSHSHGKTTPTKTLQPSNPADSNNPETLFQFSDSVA

[14] = target: YES1 (human) (UniProt P07947); details: compound 100.0 µM; ATP 20 µM
[15] = target: MAPK12 (human) (UniProt P53778); details: compound 100.0 µM; ATP 5 µM
Sequence of MAPK12 (human) (P53778 whole entry, looked up): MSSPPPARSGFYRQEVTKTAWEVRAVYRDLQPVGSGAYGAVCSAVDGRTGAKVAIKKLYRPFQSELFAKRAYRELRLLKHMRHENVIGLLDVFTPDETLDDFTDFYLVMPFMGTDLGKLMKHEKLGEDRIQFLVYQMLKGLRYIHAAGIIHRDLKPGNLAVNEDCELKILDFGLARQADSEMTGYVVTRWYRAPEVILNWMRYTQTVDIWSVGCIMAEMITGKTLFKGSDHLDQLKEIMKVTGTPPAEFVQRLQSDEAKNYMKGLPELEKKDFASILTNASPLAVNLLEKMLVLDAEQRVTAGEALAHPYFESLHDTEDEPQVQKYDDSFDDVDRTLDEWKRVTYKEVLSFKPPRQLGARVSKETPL

[16] = target: CHEK1 (human) (UniProt O14757); details: compound 100.0 µM; ATP 20 µM
Sequence of CHEK1 (human) (O14757 whole entry, looked up): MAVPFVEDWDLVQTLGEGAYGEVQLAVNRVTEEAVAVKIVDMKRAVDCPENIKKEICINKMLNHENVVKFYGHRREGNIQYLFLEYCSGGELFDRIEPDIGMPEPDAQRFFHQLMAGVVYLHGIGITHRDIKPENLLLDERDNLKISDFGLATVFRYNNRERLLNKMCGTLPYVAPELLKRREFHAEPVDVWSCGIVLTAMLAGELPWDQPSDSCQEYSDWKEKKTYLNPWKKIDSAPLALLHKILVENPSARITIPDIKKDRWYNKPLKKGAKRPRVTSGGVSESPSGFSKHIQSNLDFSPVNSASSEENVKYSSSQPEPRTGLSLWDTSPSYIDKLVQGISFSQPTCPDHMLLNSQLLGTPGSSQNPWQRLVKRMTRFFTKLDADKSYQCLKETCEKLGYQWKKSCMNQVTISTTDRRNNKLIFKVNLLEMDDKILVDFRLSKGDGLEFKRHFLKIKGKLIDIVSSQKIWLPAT

[17] = target: INSR (human) (UniProt P06213); details: compound 100.0 µM; ATP 20 µM
[18] = target: MAPK15 (human) (UniProt Q8TD08); details: compound 100.0 µM; ATP 5 µM
[19] = target: MAP3K1 (human) (UniProt Q13233); details: compound 100.0 µM; ATP 50 µM
[20] = target: PIM1 (human) (UniProt P11309); details: compound 100.0 µM; ATP 20 µM
[21] = target: JAK2 JH1 JH2 (human) (UniProt O60674); details: compound 100.0 µM; ATP 5 µM
[22] = target: CSNK2A1 (human) (UniProt P68400); details: compound 100.0 µM; ATP 5 µM
Sequence of CSNK2A1 (human) (P68400 whole entry, looked up): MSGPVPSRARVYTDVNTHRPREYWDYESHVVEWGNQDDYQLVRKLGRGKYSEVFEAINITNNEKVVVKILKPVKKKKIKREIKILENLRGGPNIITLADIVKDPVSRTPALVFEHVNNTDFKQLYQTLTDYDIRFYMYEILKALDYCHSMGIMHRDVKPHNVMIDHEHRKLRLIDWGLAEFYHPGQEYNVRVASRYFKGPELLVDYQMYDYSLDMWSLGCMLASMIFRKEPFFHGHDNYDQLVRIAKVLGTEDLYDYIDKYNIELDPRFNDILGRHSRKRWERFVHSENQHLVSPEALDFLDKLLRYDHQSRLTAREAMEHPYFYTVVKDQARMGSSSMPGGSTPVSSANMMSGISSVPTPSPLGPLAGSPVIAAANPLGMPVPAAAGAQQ

[23] = target: CAMKK2 (human) (UniProt Q96RR4); details: compound 100.0 µM; ATP 20 µM
[24] = target: PIM3 (human) (UniProt Q86V86); details: compound 100.0 µM; ATP 20 µM
[25] = target: EPHB1 (human) (UniProt P54762); details: compound 100.0 µM; ATP 20 µM
[26] = target: BRSK1 (human) (UniProt Q8TDC3); details: compound 100.0 µM; ATP 20 µM
[27] = target: MARK4 (human) (UniProt Q96L34); details: compound 100.0 µM; ATP 50 µM
[28] = target: BTK (human) (UniProt Q06187); details: compound 100.0 µM; ATP 50 µM
[29] = system: AKT2 (human), P31751 [S474D]; details: compound 100.0 µM; ATP 50 µM
Sequence of AKT2 (human), P31751 [S474D] (P31751 whole entry S474D, looked up): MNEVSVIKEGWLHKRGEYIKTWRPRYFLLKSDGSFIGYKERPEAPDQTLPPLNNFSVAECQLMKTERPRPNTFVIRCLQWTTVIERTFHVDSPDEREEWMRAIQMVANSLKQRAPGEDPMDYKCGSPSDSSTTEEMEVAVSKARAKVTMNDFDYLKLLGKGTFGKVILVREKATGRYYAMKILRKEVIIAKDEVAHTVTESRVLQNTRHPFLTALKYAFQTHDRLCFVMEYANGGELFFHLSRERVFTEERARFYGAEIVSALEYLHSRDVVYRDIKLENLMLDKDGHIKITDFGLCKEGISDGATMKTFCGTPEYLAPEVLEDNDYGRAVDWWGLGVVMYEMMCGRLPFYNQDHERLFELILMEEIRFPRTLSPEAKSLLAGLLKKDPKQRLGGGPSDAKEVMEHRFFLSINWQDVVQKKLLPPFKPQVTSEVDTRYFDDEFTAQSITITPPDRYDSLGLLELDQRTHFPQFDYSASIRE

[30] = target: IKBKB (human) (UniProt O14920); details: compound 100.0 µM; ATP 5 µM
[31] = target: MARK2 (human) (UniProt Q7KZI7); details: compound 100.0 µM; ATP 20 µM
Sequence of MARK2 (human) (Q7KZI7 whole entry, looked up): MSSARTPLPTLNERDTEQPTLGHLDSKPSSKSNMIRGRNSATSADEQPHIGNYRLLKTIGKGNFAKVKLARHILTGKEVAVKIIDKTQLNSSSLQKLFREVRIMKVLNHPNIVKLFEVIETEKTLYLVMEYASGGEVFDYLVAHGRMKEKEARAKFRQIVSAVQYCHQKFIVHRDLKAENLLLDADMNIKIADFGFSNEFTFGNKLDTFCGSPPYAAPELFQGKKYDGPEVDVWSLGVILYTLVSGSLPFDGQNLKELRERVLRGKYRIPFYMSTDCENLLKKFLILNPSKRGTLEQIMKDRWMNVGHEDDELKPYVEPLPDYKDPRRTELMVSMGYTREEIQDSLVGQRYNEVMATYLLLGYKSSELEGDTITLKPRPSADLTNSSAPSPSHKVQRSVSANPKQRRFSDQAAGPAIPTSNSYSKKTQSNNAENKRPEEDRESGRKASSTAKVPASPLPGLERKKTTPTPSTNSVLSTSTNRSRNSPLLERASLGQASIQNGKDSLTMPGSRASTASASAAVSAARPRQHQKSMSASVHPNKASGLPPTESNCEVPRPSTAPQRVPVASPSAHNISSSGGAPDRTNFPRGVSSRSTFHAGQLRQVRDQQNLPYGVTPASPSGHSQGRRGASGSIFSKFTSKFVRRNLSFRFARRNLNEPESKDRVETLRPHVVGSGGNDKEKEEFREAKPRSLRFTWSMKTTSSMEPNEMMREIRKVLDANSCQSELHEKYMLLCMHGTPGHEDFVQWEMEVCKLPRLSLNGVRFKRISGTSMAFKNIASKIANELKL

[32] = target: IRAK4 (human) (UniProt Q9NWZ3); details: compound 100.0 µM; ATP 20 µM
[33] = target: HIPK1 (human) (UniProt Q86Z02); details: compound 100.0 µM; ATP 20 µM
[34] = target: MAP2K2 (human) (UniProt P36507); details: compound 100.0 µM; ATP 5 µM
Sequence of MAP2K2 (human) (P36507 whole entry, looked up): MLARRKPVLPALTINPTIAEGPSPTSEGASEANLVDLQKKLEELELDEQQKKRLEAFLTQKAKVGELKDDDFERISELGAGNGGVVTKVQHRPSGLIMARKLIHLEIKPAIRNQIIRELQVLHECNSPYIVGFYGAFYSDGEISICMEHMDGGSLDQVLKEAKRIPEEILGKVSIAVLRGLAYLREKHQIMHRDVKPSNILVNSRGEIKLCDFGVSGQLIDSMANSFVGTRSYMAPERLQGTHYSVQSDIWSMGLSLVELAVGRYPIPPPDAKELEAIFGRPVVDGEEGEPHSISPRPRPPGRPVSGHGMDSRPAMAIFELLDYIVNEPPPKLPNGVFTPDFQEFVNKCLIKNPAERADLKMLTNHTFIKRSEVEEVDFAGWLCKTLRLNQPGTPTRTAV

[35] = target: MAP3K5 (human) (UniProt Q99683); details: compound 100.0 µM; ATP 50 µM
[36] = target: NEK6 (human) (UniProt Q9HC98); details: compound 100.0 µM; ATP 50 µM
Sequence of NEK6 (human) (Q9HC98 whole entry, looked up): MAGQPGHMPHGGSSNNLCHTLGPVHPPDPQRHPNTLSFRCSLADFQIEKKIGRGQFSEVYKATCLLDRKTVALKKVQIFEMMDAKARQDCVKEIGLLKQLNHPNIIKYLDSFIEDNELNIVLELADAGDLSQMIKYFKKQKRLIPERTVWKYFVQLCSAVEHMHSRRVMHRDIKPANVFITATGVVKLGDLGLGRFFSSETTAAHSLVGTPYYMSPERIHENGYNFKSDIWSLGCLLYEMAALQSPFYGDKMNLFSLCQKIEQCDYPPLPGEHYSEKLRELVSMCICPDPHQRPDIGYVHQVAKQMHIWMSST

[37] = target: ERBB4 (human) (UniProt Q15303); details: compound 100.0 µM; ATP 5 µM
[38] = target: MAPK8 (human) (UniProt P45983); details: compound 100.0 µM; ATP 20 µM
[39] = target: MAPK14 (human) (UniProt Q16539); details: compound 100.0 µM; ATP 50 µM
[40] = target: TTK (human) (UniProt P33981); details: compound 100.0 µM; ATP 20 µM

Sequence of MAP2K1 (human) (Q02750 whole entry, looked up): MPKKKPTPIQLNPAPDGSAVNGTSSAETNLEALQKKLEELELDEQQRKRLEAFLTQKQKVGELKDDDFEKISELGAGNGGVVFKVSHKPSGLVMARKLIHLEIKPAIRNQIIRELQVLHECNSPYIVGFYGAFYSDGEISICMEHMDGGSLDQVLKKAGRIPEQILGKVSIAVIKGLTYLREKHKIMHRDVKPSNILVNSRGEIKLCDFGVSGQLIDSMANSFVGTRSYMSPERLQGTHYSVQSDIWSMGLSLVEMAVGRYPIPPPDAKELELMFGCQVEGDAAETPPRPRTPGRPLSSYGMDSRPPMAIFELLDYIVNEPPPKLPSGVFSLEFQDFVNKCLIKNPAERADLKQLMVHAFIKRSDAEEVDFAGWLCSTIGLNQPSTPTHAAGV
Sequence of MKNK1 (human) (Q9BUB5 whole entry, looked up): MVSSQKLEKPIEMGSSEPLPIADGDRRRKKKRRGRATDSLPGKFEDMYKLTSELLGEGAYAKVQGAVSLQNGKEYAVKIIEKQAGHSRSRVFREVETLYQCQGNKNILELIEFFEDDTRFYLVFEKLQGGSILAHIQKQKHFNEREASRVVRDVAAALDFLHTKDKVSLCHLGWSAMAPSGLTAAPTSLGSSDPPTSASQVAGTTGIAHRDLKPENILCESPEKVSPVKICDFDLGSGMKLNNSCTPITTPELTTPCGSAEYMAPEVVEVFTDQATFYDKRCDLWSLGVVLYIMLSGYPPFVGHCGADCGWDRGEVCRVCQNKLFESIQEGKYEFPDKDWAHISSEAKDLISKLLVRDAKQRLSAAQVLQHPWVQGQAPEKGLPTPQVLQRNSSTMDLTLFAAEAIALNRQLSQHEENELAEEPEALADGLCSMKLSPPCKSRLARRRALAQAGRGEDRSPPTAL

inhibition [1] | inhibition [2] | inhibition [3] | inhibition [4] | inhibition [5] | inhibition [6] | inhibition [7] | inhibition [8] | inhibition [9] | inhibition [10] | inhibition [11] | inhibition [12] | inhibition [13] | inhibition [14] | inhibition [15] | inhibition [16] | inhibition [17] | inhibition [19] | inhibition [20] | Structure (SMILES) | inhibition [18] | further results
12% | 0% | 0% | 0% | 0% | 0% | 0% | 0% | 0% | 0% | 0% | 0% | 0% | 17% | 0% | 0% | 0% | 0% | 9% | CC(=O)Nc1nc2cnc(-c3c(C)cccc3C)cn2n1 | 7% | inhibition [21]: 9%; inhibition [22]: 0%; inhibition [23]: 18%; inhibition [24]: 1%; inhibition [25]: 0%; inhibition [26]: 0%; inhibition [27]: 17%; inhibition [28]: 0%; inhibition [29]: 43%; inhibition [30]: 0%; inhibition [31]: 0%; inhibition [32]: 0%; inhibition [33]: 0%; inhibition [34]: 0%; inhibition [35]: 0%; inhibition [36]: 0%; inhibition [37]: 9%; inhibition [38]: 0%; inhibition [39]: 0%; inhibition [40]: 0%
12% | 85% | 13% | 72% | 1% | 76% | 55% | 35% | 67% | 6% | 20% | 11% | 33% | 57% | 17% | 0% | 88% | 21% | 31% | Nc1cnc2c(-c3c(F)cccc3F)cccn2c1=O | 36% | inhibition [21]: 89%; inhibition [22]: 94%; inhibition [23]: 0%; inhibition [24]: 35%; inhibition [25]: 0%; inhibition [26]: 22%; inhibition [27]: 62%; inhibition [28]: 67%; inhibition [29]: 68%; inhibition [30]: 66%; inhibition [31]: 53%; inhibition [32]: 31%; inhibition [33]: 11%; inhibition [34]: 71%; inhibition [35]: 86%; inhibition [36]: 0%; inhibition [37]: 65%; inhibition [38]: 41%; inhibition [39]: 0%; inhibition [40]: 45%

More lines, now with the values behind:

Structure (SMILES) | inhibition [1] | inhibition [2] | inhibition [3] | inhibition [4] | inhibition [5] | inhibition [6] | inhibition [7] | inhibition [8] | inhibition [9] | inhibition [10] | inhibition [11] | inhibition [12] | inhibition [13] | inhibition [14] | inhibition [15] | inhibition [16] | inhibition [17] | inhibition [19] | inhibition [20] | inhibition [18] | further results
COc1ccc(-c2cc3c(=O)[nH]cnc3s2)cc1OC | 36% | 0% | 0% | 23% | 5% | 19% | 36% | 0% | 16% | 21% | 8% | 14% | 22% | 0% | 0% | 0% | 0% | 0% | 38% | 18% | inhibition [21]: 60%; inhibition [22]: 31%; inhibition [23]: 0%; inhibition [24]: 61%; inhibition [25]: 4%; inhibition [26]: 45%; inhibition [27]: 23%; inhibition [28]: 29%; inhibition [29]: 47%; inhibition [30]: 29%; inhibition [31]: 0%; inhibition [32]: 9%; inhibition [33]: 13%; inhibition [34]: 0%; inhibition [35]: 19%; inhibition [36]: 60%; inhibition [37]: 17%; inhibition [38]: 8%; inhibition [39]: 0%; inhibition [40]: 25%
O=c1c(NC(=S)NCc2ccccc2)cnc2[nH]ccn12 | 10% | 0% | 0% | 57% | 0% | 13% | 5% | 0% | 31% | 13% | 23% | 26% | 0% | 0% | 0% | 0% | 0% | 0% | 0% | 3% | inhibition [21]: 0%; inhibition [22]: 3%; inhibition [23]: 0%; inhibition [24]: 0%; inhibition [25]: 3%; inhibition [26]: 2%; inhibition [27]: 21%; inhibition [28]: 16%; inhibition [29]: 31%; inhibition [30]: 0%; inhibition [31]: 0%; inhibition [32]: 6%; inhibition [33]: 0%; inhibition [34]: 0%; inhibition [35]: 0%; inhibition [36]: 6%; inhibition [37]: 34%; inhibition [38]: 0%; inhibition [39]: 0%; inhibition [40]: 0%
O=C(Nc1cnc2[nH]cnn2c1=O)c1ccccc1 | 1% | 0% | 4% | 20% | 0% | 0% | 0% | 0% | 19% | 10% | 17% | 8% | 52% | 0% | 0% | 0% | 0% | 6% | 0% | 4% | inhibition [21]: 0%; inhibition [22]: 0%; inhibition [23]: 0%; inhibition [24]: 0%; inhibition [25]: 1%; inhibition [26]: 2%; inhibition [27]: 0%; inhibition [28]: 17%; inhibition [29]: 15%; inhibition [30]: 0%; inhibition [31]: 0%; inhibition [32]: 0%; inhibition [33]: 0%; inhibition [34]: 0%; inhibition [35]: 9%; inhibition [36]: 0%; inhibition [37]: 21%; inhibition [38]: 0%; inhibition [39]: 0%; inhibition [40]: 0%

From the kinase profiling compilation of Christmann-Franck et al. (2016)
